# Experimental data taken from publication PMC13284649, “Discovery of the PARP1 Inhibitors from Natural Compounds Using Structure-Based Virtual Screening and Bioactivity Evaluation” (Medicinal Chemistry (Shariqah (United Arab Emirates), 2025).
# Like-named read-outs stand apart in the source and are kept apart here.
# Target: PARP1 (poly ADP-ribose polymerase 1) (Homo sapiens, UniProt P09874)
# Experiment: PARP1 enzymatic ELISA (histone-coated plates, biotinylated NAD+, HRP luminescence)
# Type: biochemical
# Chain of PARP1 (poly ADP-ribose polymerase 1) (P09874 2-1014): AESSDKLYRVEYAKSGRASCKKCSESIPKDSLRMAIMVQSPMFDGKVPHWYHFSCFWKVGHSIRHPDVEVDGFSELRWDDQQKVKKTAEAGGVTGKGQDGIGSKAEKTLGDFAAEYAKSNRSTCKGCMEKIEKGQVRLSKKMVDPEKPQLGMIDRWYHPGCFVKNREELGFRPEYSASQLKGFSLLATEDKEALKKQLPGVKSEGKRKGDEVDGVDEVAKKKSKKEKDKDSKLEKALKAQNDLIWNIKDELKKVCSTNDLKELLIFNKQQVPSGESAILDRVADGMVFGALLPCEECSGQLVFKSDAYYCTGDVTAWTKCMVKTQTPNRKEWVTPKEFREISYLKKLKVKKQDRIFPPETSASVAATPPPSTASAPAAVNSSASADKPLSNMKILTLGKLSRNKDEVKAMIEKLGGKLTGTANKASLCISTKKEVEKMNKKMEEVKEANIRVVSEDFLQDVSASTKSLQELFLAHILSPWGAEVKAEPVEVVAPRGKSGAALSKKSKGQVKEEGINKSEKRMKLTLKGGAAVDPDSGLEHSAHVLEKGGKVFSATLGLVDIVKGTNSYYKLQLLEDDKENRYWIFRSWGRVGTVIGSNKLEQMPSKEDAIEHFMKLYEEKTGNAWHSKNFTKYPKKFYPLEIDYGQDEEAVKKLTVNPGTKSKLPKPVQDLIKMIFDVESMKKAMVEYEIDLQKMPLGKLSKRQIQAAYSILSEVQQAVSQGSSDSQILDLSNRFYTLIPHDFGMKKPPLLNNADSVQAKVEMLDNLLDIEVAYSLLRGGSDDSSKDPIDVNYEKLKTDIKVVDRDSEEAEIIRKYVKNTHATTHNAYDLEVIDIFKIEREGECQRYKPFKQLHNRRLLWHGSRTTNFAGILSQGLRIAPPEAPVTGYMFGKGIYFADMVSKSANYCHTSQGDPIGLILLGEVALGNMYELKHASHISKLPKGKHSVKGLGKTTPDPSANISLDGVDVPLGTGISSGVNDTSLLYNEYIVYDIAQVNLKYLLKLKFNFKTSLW
IC50 (read-out: IC50),SMILES,IC50
–,"COc1ccc2ccc(=O)oc2c1CC=C(C)C [compound 5, osthol]",76.5 ± 12.4 µM
–,"COc1c2ccoc2nc2c(O)cccc12 [compound 3, 8-hydroxy dictanmnine]",44.9 ± 8.4 µM
67.2 ± 7.6 µM,"COc1ccc2ccc(=O)oc2c1CC(O)C(C)(C)O (stereo not shown) [compound 4, meranzin hydrate]",–
–,"COc1ccc2cc3[n+](cc2c1OC)CCc1cc(O)c(O)cc1-3 [compound 2, demethyleneberberine]",2 ± 0.8 µM
